Results from patent publication US20190336496A1, “SELECTIVE BCL-2 INHIBITORS IN COMBINATION WITH AN ANTI-PD-1 OR AN ANTI-PD-L1 ANTIBODY FOR THE TREATMENT OF CANCERS” (AbbVie Inc., priority 2018, published 2019).

Assays:
Assay in all cases: Venetoclax cell killing (CellTiter-Glo)
SJSA-1 = type: cell-based; settings: Homo sapiens, SJSA-1, 120 h; Osteosarcoma; 10% FBS; 5 days
Procedure: (§1) Solid tumor cell lines were obtained from American Type Culture Collection (ATCC, Manassas, Va.) or the National Cancer Institute (NCI) and cultured in humidified incubators at 37° C. (5% CO2) in appropriate media (specified by supplier) supplemented with 10% fetal bovine serum (FBS) or 10% human serum (HS). 24 hours after plating into 96-well or 384-well tissue culture plates, venetoclax was added to cells at various concentrations (typically 0.010 to 10 μM in half-log increments) to perform concentration-response assessments of cell killing. After 1 to 5 days of culture in the presence of venetoclax, cell viability was assessed using CellTiter-Glo® reagent (Promega). IC50 values were determined by non-linear regression analysis of the concentration response data (Table 5 and Table 6).

NCI-H661 = type: cell-based; settings: Homo sapiens, NCI-H661, 72 h; Lung; 10% FBS; 3 days
Procedure: as §1

MDA-MB-231 = type: cell-based; settings: Homo sapiens, MDA-MB-231, 72 h; Breast Cancer; 10% FBS; 3 days
Procedure: as §1

SW48 = type: cell-based; settings: Homo sapiens, SW48, 120 h; Colorectal; 10% FBS; 5 days
Procedure: as §1

COLO-668 = type: cell-based; settings: Homo sapiens, COLO-668, 120 h; Colorectal; 10% FBS; 5 days
Procedure: as §1

Calu-6 = type: cell-based; settings: Homo sapiens, Calu-6, 72 h; Lung; 10% FBS; 3 days
Procedure: as §1

HCC827 = type: cell-based; settings: Homo sapiens, HCC827, 72 h; Lung; 10% FBS; 3 days
Procedure: as §1

NCI-H1048 = type: cell-based; settings: Homo sapiens, NCI-H1048, 72 h; Lung; 10% FBS; 3 days
Procedure: as §1

NCI-H69 = type: cell-based; settings: Homo sapiens, NCI-H69, 24 h; Lung; 10% FBS; 1 day
Procedure: as §1

LoVo = type: cell-based; settings: Homo sapiens, 120 h, Colorectal, 10% FBS, 5 days
Procedure: as §1

Hs 695T = type: cell-based; settings: Homo sapiens, 120 h, Melanoma, 10% FBS, 5 days
Procedure: as §1

HT29 = type: cell-based; settings: Homo sapiens, HT-29, 120 h; Colorectal; 10% FBS; 5 days
Procedure: as §1

COLO-320DM = type: cell-based; settings: Homo sapiens, 120 h, Colorectal, 10% FBS, 5 days
Procedure: as §1

FaDu = type: cell-based; settings: Homo sapiens, 120 h, Hypopharyngeal, 10% FBS, 5 days
Procedure: as §1

NCI-H358 = type: cell-based; settings: Homo sapiens, NCI-H358, 72 h; Lung; 10% FBS; 3 days
Procedure: as §1

NCI-H441 = type: cell-based; settings: Homo sapiens, NCI-H441, 72 h; Lung; 10% FBS; 3 days
Procedure: as §1

A549 = type: cell-based; settings: Homo sapiens, A549, 72 h; Lung; 10% FBS; 3 days
Procedure: as §1

RKO = type: cell-based; settings: Homo sapiens, 120 h, Colorectal, 10% FBS, 5 days
Procedure: as §1

NCI-H847 = type: cell-based; settings: Homo sapiens, 24 h; Lung; 10% FBS; 1 day
Procedure: as §1

NCI-H526 = type: cell-based; settings: Homo sapiens, NCI-H526, 24 h; Lung; 10% FBS; 1 day
Procedure: as §1

SW1463 = type: cell-based; settings: Homo sapiens, SW1463, 120 h; Colorectal; 10% FBS; 5 days
Procedure: as §1

22Rv1 = type: cell-based; settings: Homo sapiens, 22Rv1, 48 h; Prostate; 10% FBS; 2 days
Procedure: as §1

4T1 = type: cell-based, murine; settings: Mus musculus, 4T1, 72 h; Breast Cancer; 10% FBS; 3 days
Procedure: as §1

B16F10 = type: cell-based, murine; settings: Mus musculus, B16-F10, 72 h; Melanoma; 10% FBS; 3 days
Procedure: as §1

LL2 = type: cell-based, murine; settings: Mus musculus, LL/2, 72 h; Lung Cancer; 10% FBS; 3 days
Procedure: as §1

B16F1 = type: cell-based, murine; settings: Mus musculus, B16-F1, 72 h; Melanoma; 10% FBS; 3 days
Procedure: as §1

Renca = type: cell-based, murine; settings: Mus musculus, 72 h, Renal Adenocarcinoma, 10% FBS, 3 days
Procedure: as §1

MC38 = type: cell-based, murine; settings: Mus musculus, MC-38, 72 h; Colorectal; 10% FBS; 3 days
Procedure: as §1

CT26 = type: cell-based, murine; settings: Mus musculus, CT26, 72 h; Colorectal; 10% FBS; 3 days
Procedure: as §1

EMT6 = type: cell-based, murine; settings: Mus musculus, EMT6, 72 h; Breast Cancer; 10% FBS; 3 days
Procedure: as §1

CC1(C)CCC(CN2CCN(c3ccc(C(=O)NS(=O)(=O)c4ccc(NCC5CCOCC5)c([N+](=O)[O-])c4)c(Oc4cnc5[nH]ccc5c4)c3)CC2)=C(c2ccc(Cl)cc2)C1 [Compound (I), venetoclax]
IC50 (SJSA-1): > 10 µM
IC50 (NCI-H661): > 10 µM
IC50 (MDA-MB-231): 4.83 µM
IC50 (SW48): > 10 µM
IC50 (COLO-668): > 10 µM
IC50 (Calu-6): > 10 µM
IC50 (HCC827): > 10 µM
IC50 (NCI-H1048): > 10 µM
IC50 (NCI-H69): > 10 µM
IC50 (LoVo): > 10 µM
IC50 (Hs 695T): > 10 µM
IC50 (HT29): > 10 µM
IC50 (COLO-320DM): > 10 µM
IC50 (FaDu): > 10 µM
IC50 (NCI-H358): > 10 µM
IC50 (NCI-H441): > 10 µM
IC50 (A549): 3.19 µM
IC50 (RKO): > 10 µM
IC50 (NCI-H847): > 10 µM
IC50 (NCI-H526): > 10 µM
IC50 (SW1463): > 10 µM
IC50 (22Rv1): > 10 µM
IC50 (4T1): > 10 µM
IC50 (B16F10): > 10 µM
IC50 (LL2): > 10 µM
IC50 (B16F1): > 10 µM
IC50 (Renca): > 10 µM
IC50 (MC38): ~10 µM
IC50 (CT26): > 10 µM
IC50 (EMT6): > 10 µM
